Key:
Format in all cases: cell-based, human
SNB-75 = assay: NCI 60 panel five-dose growth inhibition, CNS Cancer; conditions: SNB-75, CNS Cancer; for GI50: Homo sapiens
HS 5781 = assay: NCI 60 panel five-dose growth inhibition, Breast Cancer; conditions: HS 5781, Breast Cancer; for GI50: Homo sapiens
SF-295 = assay: NCI 60 panel five-dose growth inhibition, CNS Cancer; conditions: SF-295, CNS Cancer; for GI50: Homo sapiens
U0-31 = assay: NCI 60 panel five-dose growth inhibition, Renal Cancer; conditions: U0-31, Renal Cancer; for GI50: Homo sapiens
KM12 = assay: NCI 60 panel five-dose growth inhibition, Colon Cancer; conditions: for GI50: Homo sapiens
LOX IMVI = assay: NCI 60 panel five-dose growth inhibition, Melanoma; conditions: for GI50: Homo sapiens
1-ICT-15 = assay: NCI 60 panel five-dose growth inhibition, Colon Cancer; conditions: 1-ICT-15, Colon Cancer; for GI50: Homo sapiens
RPMI-8226 = assay: NCI 60 panel five-dose growth inhibition, Leukemia; conditions: RPMI-8226, Leukemia; for GI50: Homo sapiens
A498 = assay: NCI 60 panel five-dose growth inhibition, Renal Cancer; conditions: for TGI: A498, Renal Cancer; for GI50: Homo sapiens, A498, A498, Renal Cancer
NCI-H23 = assay: NCI 60 panel five-dose growth inhibition, Non-Small Cell Lung Cancer; conditions: for GI50: Homo sapiens
COLO 205 = assay: NCI 60 panel five-dose growth inhibition, Colon Cancer; conditions: COLO 205, Colon Cancer; for GI50: Homo sapiens
NCI/ADR-RES = assay: NCI 60 panel five-dose growth inhibition, Ovarian Cancer; conditions: for GI50: Homo sapiens
M14 = assay: NCI 60 panel five-dose growth inhibition, Melanoma
MDA-MB-468 = assay: NCI 60 panel five-dose growth inhibition, Breast Cancer; conditions: MDA-MB-468, Breast Cancer; for GI50: Homo sapiens
A549/ATCC = assay: NCI 60 panel five-dose growth inhibition, Non-Small Cell Lung Cancer; conditions: for GI50: Homo sapiens
786-0 = assay: NCI 60 panel five-dose growth inhibition, Renal Cancer; conditions: 786-0, Renal Cancer; for GI50: Homo sapiens
PC-3 = assay: NCI 60 panel five-dose growth inhibition, Prostate Cancer; conditions: PC-3, Prostate Cancer; for GI50: Homo sapiens
SK-MEL-28 = assay: NCI 60 panel five-dose growth inhibition, Melanoma; conditions: SK-MEL-28, Melanoma; for GI50: Homo sapiens
SF-539 = assay: NCI 60 panel five-dose growth inhibition, CNS Cancer; conditions: SF-539, CNS Cancer; for GI50: Homo sapiens
MDA-MB-435 = assay: NCI 60 panel five-dose growth inhibition, Melanoma; conditions: Homo sapiens; MDA-MB-435, Melanoma
OVCA R-3 = assay: NCI 60 panel five-dose growth inhibition, Ovarian Cancer; conditions: OVCA R-3, Ovarian Cancer; for GI50: Homo sapiens, OVCAR-3
HT29 = assay: NCI 60 panel five-dose growth inhibition, Colon Cancer; conditions: for GI50: Homo sapiens, HT-29
HCT-116 = assay: as above; conditions: HCT-116, Colon Cancer; for GI50: Homo sapiens
CAKI-1 = assay: NCI 60 panel five-dose growth inhibition, Renal Cancer; conditions: CAKI-1, Renal Cancer; for GI50: Homo sapiens
K-562 = assay: NCI 60 panel five-dose growth inhibition, Leukemia; conditions: K-562, Leukemia; for GI50: Homo sapiens, K562
HL-60(T13) = assay: NCI 60 panel five-dose growth inhibition, Leukemia; conditions: for GI50: Homo sapiens
SNB-19 = assay: NCI 60 panel five-dose growth inhibition, CNS Cancer; conditions: SNB-19, CNS Cancer; for GI50: Homo sapiens
SF-268 = assay: as above; conditions: SF-268, CNS Cancer; for GI50: Homo sapiens
DU-145 = assay: NCI 60 panel five-dose growth inhibition, Prostate Cancer; conditions: DU-145, Prostate Cancer; for GI50: Homo sapiens
UACC-62 = assay: NCI 60 panel five-dose growth inhibition, Melanoma; conditions: for TGI: UACC-62, Melanoma
CCRF-CEM = assay: NCI 60 panel five-dose growth inhibition, Leukemia; conditions: for GI50: Homo sapiens
OVCAR-4 = assay: NCI 60 panel five-dose growth inhibition, Ovarian Cancer; conditions: OVCAR-4, Ovarian Cancer; for GI50: Homo sapiens
SW-620 = assay: NCI 60 panel five-dose growth inhibition, Colon Cancer; conditions: SW-620, Colon Cancer; for GI50: Homo sapiens
SR = assay: NCI 60 panel five-dose growth inhibition, Leukemia; conditions: for GI50: Homo sapiens
MCF7 = assay: NCI 60 panel five-dose growth inhibition, Breast Cancer; conditions: for GI50: Homo sapiens
SK-MEL-2 = assay: NCI 60 panel five-dose growth inhibition, Melanoma; conditions: SK-MEL-2, Melanoma; for GI50: Homo sapiens

## COc1ccc(-c2n[nH]nc2-c2cc(OC)c(OC)c(OC)c2)cc1 [Example 6, 4-(4-methoxyphenyl)-5-(3,4,5-trimethoxyphenyl)-2H-1,2,3-triazole]
SNB-75
  GI50: < 10 nM
  TGI: 21900 nM
HS 5781
  TGI: 64200 nM
  GI50: 668 nM
SF-295
  GI50: < 10 nM
  TGI: 42800 nM
U0-31
  GI50: < 10 nM
  TGI: 24600 nM
KM12
  TGI: 11200 nM
  GI50: < 10 nM
LOX IMVI
  TGI: 37800 nM
  GI50: 17.5 nM
1-ICT-15
  TGI: >100000 nM
  GI50: < 10 nM
RPMI-8226
  GI50: 32.5 nM
  TGI: 11000 nM
A498
  TGI: 1500 nM
  GI50: < 10 nM
NCI-H23
  TGI: 41700 nM
  GI50: 48 nM
COLO 205
  TGI: 70 nM
  GI50: 26.7 nM
NCI/ADR-RES
  TGI: 69700 nM
  GI50: < 10 nM
M14; Homo sapiens
  GI50: < 10 nM
MDA-MB-468
  GI50: 14.7 nM
  TGI: 30500 nM
A549/ATCC
  TGI: 22600 nM
  GI50: 22.9 nM
786-0
  TGI: 13500 nM
  GI50: < 10 nM
PC-3
  GI50: 18.4 nM
  TGI: 39400 nM
SK-MEL-28
  GI50: > 100 nM
  TGI: 34800 nM
SF-539
  GI50: < 10 nM
MDA-MB-435
  GI50: < 10 nM
OVCA R-3
  GI50: < 10 nM
  TGI: <10 nM
HT29
  TGI: 12300 nM
  GI50: 25.3 nM
HCT-116
  TGI: 810 nM
  GI50: < 10 nM
CAKI-1
  TGI: >100000 nM
  GI50: < 10 nM
K-562
  GI50: < 10 nM
  TGI: >100000 nM
HL-60(T13)
  TGI: 80 nM
  GI50: 18.9 nM
SNB-19
  GI50: 29.4 nM
  TGI: >100000 nM
SF-268
  GI50: 68.5 nM
  TGI: >100000 nM
DU-145
  TGI: >100000 nM
  GI50: 25 nM
UACC-62
  TGI: 21200 nM
CCRF-CEM
  TGI: >100000 nM
  GI50: 33.7 nM
OVCAR-4
  GI50: 33.6 nM
  TGI: 57200 nM
SW-620
  GI50: < 10 nM
  TGI: >100000 nM
SR
  TGI: 24000 nM
  GI50: < 10 nM
MCF7
  TGI: 37900 nM
  GI50: < 10 nM
SK-MEL-2
  GI50: < 10 nM
  TGI: 18100 nM

## COc1cc(-c2n[nH]nc2-c2ccc3c(c2)OCCO3)cc(OC)c1OC [Example 7, 4-(2,3-dihydrobenzo[b][1,4]dioxin-6-yl)-5-(3,4,5-trimethoxyphenyl)-2H-1,2,3-triazole]
SNB-75
  GI50: 82.4 nM
HS 5781
  TGI: >100000 nM
  GI50: 442 nM
SF-295
  GI50: 98.9 nM
  TGI: 3610 nM
U0-31
  GI50: 661 nM
  TGI: 72700 nM
KM12
  TGI: 11900 nM
  GI50: 70 nM
LOX IMVI
  TGI: 87100 nM
  GI50: 545 nM
1-ICT-15
  TGI: >100000 nM
  GI50: 125 nM
RPMI-8226
  GI50: 326 nM
  TGI: 22100 nM
A498
  TGI: 9320 nM
  GI50: 343 nM
NCI-H23
  TGI: >100000 nM
  GI50: 767 nM
COLO 205
  TGI: 1300 nM
  GI50: 311 nM
NCI/ADR-RES
  TGI: 24000 nM
  GI50: 84.9 nM
M14
  TGI: 12000 nM
MDA-MB-468
  GI50: 226 nM
  TGI: 25800 nM
A549/ATCC
  TGI: 50900 nM
  GI50: 289 nM
786-0
  TGI: 63500 nM
  GI50: 618 nM
PC-3
  GI50: 255 nM
  TGI: 43700 nM
SK-MEL-28
  GI50: 244 nM
  TGI: 43500 nM
SF-539
  GI50: 181 nM
  TGI: 540 nM
MDA-MB-435
  GI50: 94.8 nM
OVCA R-3
  GI50: 432 nM
  TGI: 370 nM
HT29
  TGI: 12500 nM
  GI50: 392 nM
HCT-116
  TGI: 15600 nM
  GI50: 181 nM
CAKI-1
  TGI: >100000 nM
  GI50: 316 nM
K-562
  GI50: 49.6 nM
  TGI: >100000 nM
HL-60(T13)
  GI50: 201 nM
SNB-19
  GI50: 501 nM
  TGI: >100000 nM
SF-268
  GI50: > 1000 nM
  TGI: >100000 nM
DU-145
  TGI: >100000 nM
  GI50: 346 nM
UACC-62; Homo sapiens, UACC-62, UACC-62, Melanoma
  GI50: > 1000 nM
UACC-62
  TGI: 30800 nM
CCRF-CEM
  TGI: >100000 nM
  GI50: 282 nM
OVCAR-4
  GI50: 76.3 nM
  TGI: >100000 nM
SW-620
  GI50: 105 nM
  TGI: >100000 nM
SR
  TGI: 11600 nM
  GI50: 43.6 nM
MCF7
  TGI: >100000 nM
  GI50: 76.8 nM
SK-MEL-2
  GI50: 23.6 nM
  TGI: 55700 nM

Reference: patent US10239844B2, “Disubstituted triazole analogs” (BioVentures, LLC, priority 2014, dated 2019)
